Here are results for ten molecules from ChEMBL document CHEMBL1147742, “Design and synthesis of photoaffinity-labeling ligands of the L-prolyl-L-leucylglycinamide binding site involved in the allosteric modulation of the dopamine receptor” (J Med Chem, 2006).

The source made the active and inactive calls. The calls are words filed in the database; no cut-off is given here. Where a SMILES comes first, the peptide text is derived from it.

D(2) dopamine receptor (Bos taurus), sequence (P20288 whole entry): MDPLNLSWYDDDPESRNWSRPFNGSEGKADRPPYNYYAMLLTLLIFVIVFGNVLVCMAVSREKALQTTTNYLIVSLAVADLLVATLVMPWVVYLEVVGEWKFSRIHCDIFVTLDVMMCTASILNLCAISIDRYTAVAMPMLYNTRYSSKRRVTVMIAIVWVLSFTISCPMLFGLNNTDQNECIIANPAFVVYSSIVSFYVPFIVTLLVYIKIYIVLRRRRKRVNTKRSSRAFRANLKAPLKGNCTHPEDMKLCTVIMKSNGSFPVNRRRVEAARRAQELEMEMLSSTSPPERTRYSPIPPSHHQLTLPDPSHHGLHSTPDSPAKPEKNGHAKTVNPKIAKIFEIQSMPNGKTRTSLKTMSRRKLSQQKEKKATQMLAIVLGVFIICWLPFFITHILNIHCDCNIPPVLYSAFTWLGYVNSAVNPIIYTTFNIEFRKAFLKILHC

The first assay addresses D(2) dopamine receptor (Bos taurus) (UniProt P20288). Briefly: Stimulation of [3H]NPA binding to dopamine D2 receptor from bovine striatal membranes in presence of photoaffinity-labeling agents.
Details: not given
Consider `CC(C)C[C@H](NC(=O)[C@@H]1CCCN1)C(=O)NCC(N)=O` (H-Pro-Leu-Gly-NH2), for which the outcome was inactive.

Take `NC(=O)CN1CC[C@@H](NC(=O)[C@@H]2CCCN2)C1=O`: the outcome was inactive.

The target is the same in the next assay. Briefly: Stimulation of [3H]NPA binding to dopamine D2 receptor in bovine striatal membranes. It counts as cell membranes. To be noted: Striatum, Membrane.
As to `[N-]=[N+]=Nc1ccc(C(=O)NCCNC(=O)CN2CC[C@@H](NC(=O)[C@@H]3CCCN3)C2=O)cc1`, the result was Active.

Turning to `[N-]=[N+]=Nc1ccc(C(=O)NCCNC(=O)CN2CC[C@@H](NC(=O)[C@@H]3CCCN3)C2=O)c(O)c1`, the outcome was Active.

`[N-]=[N+]=Nc1cc(O)c(C(=O)NCCNC(=O)CN2CC[C@@H](NC(=O)[C@@H]3CCCN3)C2=O)cc1I`: the outcome was Active.

As for `[N-]=[N+]=Nc1ccc(C(=O)N[C@@H]2CN[C@H](C(=O)N[C@@H]3CCN(CC(N)=O)C3=O)C2)c(O)c1`, the outcome was Active.

Consider `[N-]=[N+]=Nc1ccc(C(=O)N[C@@H]2CN[C@H](C(=O)N[C@@H]3CCN(CC(N)=O)C3=O)C2)cc1`, for which the result was Active.

As to `[N-]=[N+]=Nc1cc(O)c(C(=O)N[C@@H]2CN[C@H](C(=O)N[C@@H]3CCN(CC(N)=O)C3=O)C2)cc1I`, the outcome was Active.

For `[N-]=[N+]=Nc1ccc(C(=O)N[C@H]2CN[C@H](C(=O)N[C@@H]3CCN(CC(N)=O)C3=O)C2)c(O)c1`, the outcome was Active.

The molecule `CC(C)C[C@H](NC(=O)[C@@H]1CCCN1)C(=O)NCC(N)=O` (H-Pro-Leu-Gly-NH2) gave an Activity of 24.5%.

Take `NC(=O)CN1CC[C@@H](NC(=O)[C@@H]2CCCN2)C1=O`: the Activity came out at 51.1%.

Take `[N-]=[N+]=Nc1ccc(C(=O)N[C@H]2CN[C@H](C(=O)N[C@@H]3CCN(CC(N)=O)C3=O)C2)cc1`: the outcome was Active.
